Among the data in patent US20240002375A1, “2-(INDAZOL-5-YL)-6-(PIPERIDIN-4-YL)-1,7-NAPHTHYRIDINE DERIVATIVES AND RELATED COMPOUNDS AS MODULATORS FOR SPLICING NUCLEIC ACIDS AND FOR THE TRE” (REMIX THERAPEUTICS INC., priority 2020, published 2024) are IC50 and AC50 values, retold here.

Some results are limits rather than exact numbers.

The term IC50 denotes the concentration at which inhibition is half-maximal. What is called AC50 is the concentration at which the activity in the assay is half-maximal.

Common to all, as to format: cell-based
The test system of assay [1] is HTT mRNA. The assay is described as follows: Splicing assay (RT-qPCR) of HTT mRNA alternative junction (AJ) and canonical junction (CJ). The conditions noted are these: A673 or K562 cells, 24 hours; for IC50: decrease in CJ mRNA, read-out: HTT CJ IC50; for AC50: increase in AJ mRNA, read-out: HTT AJ AC50. How it is done:
Compounds described herein were used to modulate RNA transcript abundance in cells. The expression of a target mRNA was measured by detecting the formation of an exon-exon junction in the canonical transcript (CJ). A compound mediated exon-inclusion event was detected by observing an increase in formation of a new junction with an alternative exon (AJ). Real-time qPCR assays were used to detect these splicing switches and interrogate the potency of various compounds towards different target genes. A high-throughput real time quantitative PCR (RT-qPCR) assay was developed to measure these two isoforms of the mRNA (CJ and AJ) for an exemplary gene, HTT, together with a control housekeeping gene, GAPDH or GUSB or PPIA, used for normalization. Briefly, the A673 or K562 cell line was treated with various compounds described herein (e.g., compounds of Formula (I) or (II)). After treatment, the levels of the HTT mRNA targets were determined from each sample of cell lysate by cDNA synthesis followed by qPCR.
Materials: • Cells-to-CT 1-step kit: ThermoFisher A25602, Cells-to-CT lysis reagent: ThermoFisher 4391851C, TagMan™ Fast Virus 1-Step Master Mix: ThermoFisher 4444436 • GAPDH: VIC-PL, ThermoFisher 4326317E (Assay: Hs99999905_ml)—used for K562/suspension cell lines • GUSB: VIC-PL, ThermoFisher 4326320E (Assay: Hs99999908 ml)—used for K562/suspension cell lines • PPIA: VIC-PL, ThermoFisher 4326316E (Assay: Hs99999904 ml)—used for A673/adherent cell lines
The A673 cell line was cultured in DMEM with 10% FBS. Cells were diluted with full growth media and plated in a 96-well plate (15,000 cells in 100 ul media per well). The plate was incubated at 37° C. with 5% CO2 for 24 hours to allow cells to adhere. An 11-point 3-fold serial dilution of the compounds was made in DMSO then diluted in media in an intermediate plate. Compounds were transferred from the intermediate plate to the cell plate with the top dose at a final concentration of 10 uM in the well. Final DMSO concentration was kept at or below 0.25%. The cell plate was returned to the incubator at 37° C. with 5% CO2 for an additional 24 hours.
The K562 cell line was cultured in IMDM with 10% FBS. For K562, cells were diluted with full growth media and plated in either a 96-well plate (50,000 cells in 50 uL media per well) or a 384-well plate (8,000-40,000 cells in 45 uL media per well). An 11-point 3-fold serial dilution of the compounds were made in DMSO then diluted in media in an intermediate plate. Compound was transferred from the intermediate plate to the cell plate with the top dose at a final concentration of 10 uM in the well. Final DMSO concentration was kept at or below 0.25%. Final volume was 100 uL for 96-well plate and 50 uL for 384-well plate. The cell plate was then placed in an incubator at 37° C. with 5% CO2 for 24 hours.
The cells were then gently washed with 50 uL-100 uL cold PBS before proceeding to addition of lysis buffer. 30 uL-50 uL of room temperature lysis buffer with DNAse I (and optionally RNAsin) was added to each well. Cells were shaken/mixed thoroughly at room temperature for 5-10 minutes for lysis to take place and then 3 uL-5 uL of room temperature stop solution was added and wells were shaken/mixed again. After 2-5 minutes, the cell lysate plate was transferred to ice for RT-qPCR reaction setup. The lysates could also be frozen at −80° C. for later use.
In some cases, a direct lysis buffer was used. An appropriate volume of 3X lysis buffer (10 mM Tris, 150 mM NaCl, 1.5%-2.5% Igepal and 0.1-1 U/uL RNAsin, pH 7.4) was directly added to either K562 or A673 cells in media and mixed by pipetting 3 times. The plates were then incubated at room temperature with shaking/rocking for 20-50 minutes to allow for lysis to take place. After this time, the cell lysate plate was transferred to ice to set up for the RT-qPCR reactions. The lysates could also be frozen at −80° C. for later use. […]
(Quantitative PCR measures a nucleic acid by following its amplification.)

Assay [2] has as its system HTT CJ mRNA. The assay is described as follows: Gene panel canonical junction qPCR splicing assay, HTT. The conditions noted are these: Table 4, read-out: HTT IC50 (decrease in CJ mRNA levels). On the procedure: (§1) Compounds described herein were used to modulate RNA transcript abundance in cells. The expression of a target mRNA was measured by detecting the formation of an exon-exon junction in the canonical transcript (CJ). A compound mediated exon-inclusion event was detected by observing an increase in formation of a new junction with an alternative exon (AJ). Real-time qPCR assays were used to detect these splicing switches and interrogate the potency of various compounds towards different target genes. A high-throughput real time quantitative PCR (RT-qPCR) assay was developed to measure these two isoforms of the mRNA (CJ and AJ) for an exemplary gene, HTT, together with a control housekeeping gene, GAPDH or GUSB or PPIA, used for normalization. Briefly, the A673 or K562 cell line was treated with various compounds described herein (e.g., compounds of Formula (I) or (II)). After treatment, the levels of the HTT mRNA targets were determined from each sample of cell lysate by cDNA synthesis followed by qPCR. The data analysis was performed by first determining the ΔCt vs the housekeeper gene. This ΔCt was then normalized against the DMSO control (ΔΔCt) and converted to RQ (relative quantification) using the 2^(−ΔΔCt) equation. The RQ were then converted to a percentage response by arbitrarily setting an assay window of 3.5 ΔCt for HTT-CJ and an assay window of 9 ΔCt for HTT-AJ. […] The percentage response was then fitted to the 4 parametric logistic equation to evaluate the concentration dependence of compound treatment. The increase in AJ mRNA is reported as AC50 (compound concentration having 50% response in AJ increase) while the decrease in CJ mRNA levels is reported as IC50 (compound concentration having 50% response in CJ decrease). Additional studies were carried out for a larger panel of genes using the protocol provided above. The junction between flanking upstream and downstream exons was used to design canonical junction qPCR assays. At least one of the forward primer, reverse primer or the CY5-labeled 5′ nuclease probe (with 3′ quencher such as ZEN/Iowa Black FQ) was designed to overlap with the exon junction to capture the CJ mRNA transcript. BLAST was used to confirm the specificity of the probeset and parameters such as melting temperature, GC content, amplicon size, and primer dimer formation are considered during their design. Data for the decrease in CJ mRNA levels for three exemplary genes (HTT, SMN2, and Target C) analyzed in this panel are reported as IC50 (compound concentration having 50% response in CJ decrease).

In assay [3] the test system is SMN2 CJ mRNA. The assay is described as follows: Gene panel canonical junction qPCR splicing assay, SMN2. The note with it: Table 4, read-out: SMN2 IC50 (decrease in CJ mRNA levels). How it is done: as §1
Assay [4] relates to Target C CJ mRNA. The assay is described as follows: Gene panel canonical junction qPCR splicing assay, Target C. The note with it: Table 4, read-out: Target C IC50 (decrease in CJ mRNA levels). How it is done: as §1

For the compound `Cn1cc2cc(-c3ccc4nc(N5CC[C@H](NC6(C)CC6)C5)ccc4n3)c(O)cc2n1` (single isomer, unassigned) [Compound 221, 2-methyl-5-{6-[(35)-3-[(1-methylcyclopropyl)amino]pyrrolidin-1-yl]-1,5-naphthyridin-2-yl}indazol-6-ol], the IC50 in assay [1], in assay [2], in assay [3] and in assay [4] was less than 100 nM in each case. For the same compound, the AC50 in assay [1] was less than 100 nM.
On to `Cn1cc2cc(-c3ccc4nc(N5CC[C@H](NC6(C)CC6)C5)ccc4n3)c(O)c(F)c2n1` (single isomer, unassigned) [Compound 222, 7-fluoro-2-methyl-5-{6-[(3 S)-3-[(1-methylcyclopropyl)amino]pyrrolidin-1-yl]-1,5-naphthyridin-2-yl}indazol-6-ol], for which the 50% inhibitory concentration (IC50) in assay [1], in assay [2], in assay [3] and in assay [4] was less than 100 nM each time. In addition, the AC50 in assay [1] was less than 100 nM.
Regarding `Cn1cc2cc(-c3ccc4nc(N5CC[C@@H](NC6(C)CC6)C5)ccc4n3)c(O)c(F)c2n1` (single isomer, unassigned) [Compound 223], the IC50 in assay [1], in assay [2], in assay [3] and in assay [4] was less than 100 nM in each case. Moreover, the AC50 in assay [1] was less than 100 nM.
`Cc1c(O)c(-c2ccc3nc(N4CC[C@@H](NC5(C)CC5)C4)ccc3n2)cc2cn(C)nc12` (single isomer, unassigned) [Compound 225]: the IC50 in assay [1], in assay [2], in assay [3] and in assay [4] was less than 100 nM throughout. The AC50 in assay [1] is less than 100 nM.
As to `Cc1c(O)c(-c2ccc3nc(N4CC[C@H](NC5(C)CC5)C4)ccc3n2)cc2cn(C)nc12` (single isomer, unassigned) [Compound 226, 2,7-dimethyl-5-{6-[(35)-3-[(1-methylcyclopropyl)amino]pyrrolidin-1-yl]-1,5-naphthyridin-2-yl}indazol-6-ol], the IC50 in assay [1], in assay [2], in assay [3] and in assay [4] was less than 100 nM in each case. For the same compound, the AC50 in assay [1] is less than 100 nM.
As for `Cc1nc2cc(O)c(-c3ccc4nc(N5CCC(NC6CCC6)C5)ccc4n3)cc2o1` (single isomer, unassigned) [Compound 229, 6-{6-[3-(cyclobutylamino)pyrrolidin-1-yl]-1,5-naphthyridin-2-yl}-2-methyl-1,3-benzoxazol-5-ol], the IC50 in assay [1] is less than 100 nM; in assay [2] it was less than 100 nM; in assay [3] it was less than 100 nM; in assay [4], 100 to 1000 nM. Moreover, in assay [1], the AC50 was less than 100 nM.
For `Cc1nc2cc(O)c(-c3ccc4nc(N5CCC(NC6CCC6)C5)ccc4n3)cc2o1` (single isomer, unassigned) [Compound 230, 6-{6-[3-(cyclobutylamino)pyrrolidin-1-yl]-1,5-naphthyridin-2-yl}-2-methyl-1,3-benzoxazol-5-ol], the IC50 in assay [1] is less than 100 nM; in assay [2], less than 100 nM; in assay [3] it was less than 100 nM; in assay [4], 100 to 1000 nM. In addition, in assay [1], the AC50 is less than 100 nM.
Consider `Cc1nc2cc(O)c(-c3ccc4nc(N5CC[C@@H](NC(C)C)C5)ccc4n3)cc2o1` (single isomer, unassigned) [Compound 232, 6-{6-[3-(isopropylamino)pyrrolidin-1-yl]-1,5-naphthyridin-2-yl}-2-methyl-1,3-benzoxazol-5-ol], for which the IC50 in assay [1], in assay [2], in assay [3] and in assay [4] was less than 100 nM in each case. Besides, the AC50 in assay [1] was less than 100 nM.
For `Cc1nc2cc(O)c(-c3ccc4nc(N5CC[C@H](NC(C)C)C5)ccc4n3)cc2o1` (single isomer, unassigned) [Compound 233, 6-{6-[3-(isopropylamino)pyrrolidin-1-yl]-1,5-naphthyridin-2-yl}-2-methyl-1,3-benzoxazol-5-ol], the half-maximal inhibitory concentration (IC50) in assay [1], in assay [2], in assay [3] and in assay [4] was less than 100 nM in each case. Further, in assay [1], the half-maximal activity concentration (AC50) was less than 100 nM.
Take `Cc1nc2c(C)c(O)c(-c3ccc4nc(N5CCC(NC6CCC6)C5)ccc4n3)cc2o1` (single isomer, unassigned) [Compound 237, 6-{6-[3-(cyclobutylamino)pyrrolidin-1-yl]-1,5-naphthyridin-2-yl}-2,4-dimethyl-1,3-benzoxazol-5-ol]: the IC50 in assay [1], in assay [2], in assay [3] and in assay [4] was less than 100 nM in each case. Moreover, in assay [1], the AC50 was less than 100 nM.
For `Cc1nc2c(F)c(O)c(-c3ccc4nc(N5CC[C@@H](NC6CC6)C5)ccc4n3)cc2o1` (single isomer, unassigned) [Compound 253, 6-{6-[3-(cyclopropylamino)pyrrolidin-1-yl]-1,5-naphthyridin-2-yl}-4-fluoro-2-methyl-1,3-benzoxazol-5-ol], the IC50 in assay [1], in assay [2], in assay [3] and in assay [4] was less than 100 nM throughout. The AC50 in assay [1] is less than 100 nM.
